According to patent US20080188524A1, “Methods of treating pain” (priority 2006, published 2008):
Values joined by “and” are separate entries in the source; they are usually repeats but may differ in a detail not shown here. Identical values can stand only once. “Also recorded” adds a separate entry of the source.

What was measured:
[1] = test system: TNFα and IL6 expression in LPS induced THP-1 macrophages; test: In vitro THP-1 assay, LPS-induced cytokine expression (ELISA); type: cell-based, human
Protocol: The human THP-1 cell line can be utilized as an in vitro model of cytokine expression as mediated by Lipopolysaccharide (LPS) or Tumor Necrosis Factors [TNFα]. Monocytic THP-1 cells (ATCC; TIB-202) can be differentiated into macrophage-like cells expressing pro-inflammatory cytokines like TNFα, IL6 and IL1β upon induction with LPS or by TNFα (autocrine induction) itself. THP-1 cells are grown in modified RPMI-1640medium (ATCC, Cat. No. 30-2001) supplemented with 10% FCS and 1% Pen/Strep. For cytokine inhibition assays, cells are seeded at a density of 5×10^5 cells/ml into 6-well plates in standard growth medium supplemented with 100 ng/ml PMA (Sigma, P1585) to induce differentiation into macrophage-like cells. After 24 hours, the medium is replaced with standard growth medium (without PMA) and the cells are incubated for another 48 hours to complete differentiation. […] Cells are incubated for 60 min with compounds prior to stimulation with 100 ng/ml LPS (Sigma, L2630) for another 4-48 hours. Supernatants are collected and assayed immediately for cytokine expression, e.g. for TNFα, IL-6 and IL-1b using commercially available sandwich ELISA assays (eBioscience, Cat. No 88-7346, 88-7066, 88-7010) or kept frozen at […] until evaluation. Concentrations of TNFα, IL6 and IL1β within the cell culture supernatants are measured by using commercial ELISA Kits (eBioscience) according to the manufacturer's instructions. CDK-inhibitory compounds according to any one of general Formula I, II or III are administered to differentiated THP-1 cells in triplicates as described above (see section 2.). After 60 min of pre-incubation with test or reference compound (SB203580, a p38 inhibitor and BMS345541, an IKK-inhibitor) alone, cells are stimulated with LPS. After incubation for 4-48 h, supernatants are collected and ELISA based determinations of cytokine supernatant concentrations are performed as described in section 3, supra. […] After 60 min of pre-incubation with test or reference compound (a p38 inhibitor and an IKK-inhibitor, respectively) alone, cells were stimulated with LPS. […]

[2] = test system: SNI mice (mechanical allodynia); test: Spared nerve injury (SNI) model, von Frey assay; type: in vivo, mice (strain C3HeB/FeJ); settings: 30 mg/kg i.p., day 21 post SNI
Excerpt: The spared nerve injury model (SNI model, as developed by Decosterd and Woolf (2000), see FIG. 1) is characterized by the induction of clinically relevant nerve lesions and after surgical intervention, subsequent behavioral experiments (e.g., von Frey Assay). Said model constitutes a common nerve injury model which consists of ligation and section of two branches of the sciatic nerve (namely tibial and common peroneal nerves) leaving the sural nerve intact. The SNI model results in early (less than 24 hours), prolonged and substantial changes in mechanical and cold sensitivity that closely mimic the features of clinical neuropathic pain. […] As outlined above, the spared nerve injury (SNI) model (see FIG. 1) involves a lesion of two of the three terminal branches of the sciatic nerve (tibial and common peroneal nerves) of experimental animals, leaving the sural nerve intact. SNI results in mechanical and thermal allodynia in the non-injured sural nerve skin territory (Decosterd and Woolf, Pain 2000; 87:149-158. (2) Tsujino et al., Mol. Cel. Neurosci. 2000; 15:170-182). Wildtype mice (strain […]/FeJ) (age, sex and weight matched) are anesthetized with Hypnorm (0.315 mg/ml fentanyl citrate +10 mg/ml fluanisone; Janssen)/Hypnovel (5 mg/ml midazolam; Roche Applied Sciences)/water at a ratio of 1:1:2 at 4 μl/g prior to surgical preparation. Subsequently, an incision is made under aseptic precautions in the ipsi-lateral right hind leg of all mice just above the level of the knee, exposing the three terminal branches of the sciatic nerve: the common peroneal, tibial, and sural nerves. The common peroneal and tibial nerves are ligated tightly with 7/0 silk and sectioned distal to the ligation removing 2 mm of distal nerve stump. The sural branch remains untouched during the procedure (denoted herein “SNI ipsi”). […] Reflex nociceptive responses to mechanical stimulation were measured in a von Frey assay 30 min after each injection. […] Mechanical thresholds of SNI mice are quantified using the up-down method based on Chaplan et al. (1994) and Malmberg and Basbaum (1998). […]

[3] = test system: carrageenan-treated mice (paw edema); test: Carrageenan assay in mice, paw edema; type: in vivo; settings: within the observation period, all treated animals
Protocol: For the carrageenan assay a subcutaneous injection of 25 μl of 1% carrageenan (in saline) into a single hind paw (ipsi-lateral paw) of mice is applied. Subsequent inflammation results in long lasting swelling and hypersensitivity (against mechanical and thermal stimuli) of the paw. The carrageenan assay is a standard laboratory assay used to predict anti-inflammatory activity of test compounds. Paw edema measurements and Hargreaves Assay (withdrawal of paws due to thermal stimulation via a light source) are used for read out. The model of carrageenan induced paw edema is a standard laboratory assay used to predict anti-inflammatory activity and reduction of inflammation-induced pain perception of respective compounds. The following protocol describes one possible way to conduct the experiment. The basic measurement constitutes in the measurement of edema and mechanical as well as thermal hypersensitivity in response to irritants, such as carrageenan. […] Paw edema induced by carrageenan injection are detected by increased paw size measured from dorsal to plantar at the metatarsus region of the injected (ipsi-lateral) paws. Sizes of ipsi- and contra-lateral paws serve as surrogate markers for inflammation and are measured at several time points after carrageenan injection: before injection (-1), 2 […] […]

[4] = test system: LPS or SEB induced TNF α in human whole blood; test: tissue or blood; type: cell-based
[5] = LPS-stimulated differentiated THP-1 cells, ELISA

SMILES: CC(C)(C)c1cnc(CSc2cnc(NC(=O)C3CCNCC3)s2)o1 [compound #16 of Table 1, N-[5-[[[5-(1,1-dimethylethyl)-2-oxazolyl]-methyl]thio]-2-thiazolyl]-4-piperidinecarboxamide]
- TNFα signal compared to DMSO (vehicle control) ([1]; 3 μM, LPS-induced THP-1 cells): 50%
- effect on IL6 protein concentration in the cell supernatant versus vehicle (DMSO) [1, 5]: significant inhibitory effect
- effect on TNFα protein concentration in the cell supernatant versus vehicle (DMSO) [1, 5]: significant inhibitory effect
- effect on mechanical allodynia of SNI mice (von Frey) ([2]; 30 min prior to von Frey measurement, ipsi-lateral paw): hypoalgesic effect; also recorded: significant amelioration of allodynia
- contra-lateral paws, effect of pharmacological treatment (von Frey) ([2]; contra-lateral paw): unaffected
- von Frey threshold values ([2]; ipsi-lateral paw, all treated animals): significant increase of threshold values
- ipsi-lateral paw edema compared to vehicle control group [3]: reduced paw edema
- reduction of TNF α levels [4]: 89% and 85% and 78%
- IC50 ([4]; Homo sapiens, read-out: IC50 (TNF α reduction), deduced from the data): < 0.5 µM
